Bounds are passed on as bounds.

These results are taken from patent US10336762B2 (priority 2017, dated 2019).

The test system of one experiment is TNFα. As to the kind of experiment: cells. In kind it is cell-based, human. Conditions: Homo sapiens, Monocyte, LPS-stimulated human monocytes, TNFα content; read-out: EC50 TNF.
A further experiment concerns the target IRAK4 enzyme (Homo sapiens (Human), UniProt Q9NWZ3). As to the kind of experiment: biochemical. Conditions: IRAK4 enzyme, TR-FRET (HTRF), 500 μM ATP. In kind it is biochemical. (Time-resolved FRET reads energy transfer from a long-lived donor to a nearby acceptor.)

Chain of IRAK4 enzyme (Q9NWZ3 whole entry): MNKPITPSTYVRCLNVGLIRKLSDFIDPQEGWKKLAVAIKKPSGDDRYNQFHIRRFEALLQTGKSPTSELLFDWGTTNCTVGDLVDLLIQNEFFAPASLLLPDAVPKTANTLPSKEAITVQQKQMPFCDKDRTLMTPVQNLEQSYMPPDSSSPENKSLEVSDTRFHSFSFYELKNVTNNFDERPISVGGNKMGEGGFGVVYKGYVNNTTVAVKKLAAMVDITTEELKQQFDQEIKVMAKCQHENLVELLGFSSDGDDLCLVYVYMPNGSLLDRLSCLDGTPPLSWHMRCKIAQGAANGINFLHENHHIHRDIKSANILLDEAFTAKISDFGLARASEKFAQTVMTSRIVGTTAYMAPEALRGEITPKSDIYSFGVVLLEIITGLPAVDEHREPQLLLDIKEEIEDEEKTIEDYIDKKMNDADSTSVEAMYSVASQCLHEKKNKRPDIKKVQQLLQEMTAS

Take `Cc1ncoc1[C@H]1CC[C@H](Nc2cc(-c3ccc4cc(C#N)cnn34)ncc2C(=O)NC[C@@H](F)C(C)(C)O)CC1` [Example 631, 6-(3-cyanopyrrolo[1,2-b]pyridazin-7-yl)-N-((R)-2-fluoro-3-hydroxy-3-methylbutyl)-4-(((1r,4R)-4-(4-methyloxazol-5-yl)cyclohexyl)amino) nicotinamide]: the EC50 in the experiment with TNFα was 21 nM. The same compound had an IC50 at IRAK4 enzyme of 2 nM.

Consider `Cc1ncoc1-c1ccc(Nc2cc(-c3ccc4cc(C#N)cnn34)ncc2C(=O)NC[C@@H](F)C(C)(C)O)cn1` [Example 632, (R)-6-(3-cyanopyrrolo[1,2-b]pyridazin-7-yl)-N-(2-fluoro-3-hydroxy-3-methylbutyl)-4-((6-(4-methyloxazol-5-yl)pyridin-3-yl)amino) nicotinamide], for which, in the experiment on TNFα, the EC50 was 28 nM. Besides, the IC50 against IRAK4 enzyme is < 1 nM.

As to `CC(C)(O)[C@H](F)CNC(=O)c1cnc(-c2ccc3cc(C#N)cnn23)cc1NC12CCC(c3cnco3)(CC1)OC2` [Example 633, (R)-6-(3-cyanopyrrolo[1,2-b]pyridazin-7-yl)-N-(2-fluoro-3-hydroxy-3-methylbutyl)-4-((1-(oxazol-5-yl)-2-oxabicyclo[2.2.2]octan-4-yl)amino) nicotinamide], the EC50 in the experiment on TNFα stood at 2 nM. In addition, the IC50 against IRAK4 enzyme was < 1 nM.

Take `Cc1ncoc1C12CCC(Nc3cc(-c4ccc5cc(C#N)cnn45)ncc3C(=O)NC[C@@H](F)C(C)(C)O)(CC1)CO2` [Example 634, (R)-6-(3-cyanopyrrolo[1,2-b]pyridazin-7-yl)-N-(2-fluoro-3-hydroxy-3-methylbutyl)-4-((1-(4-methyloxazol-5-yl)-2-oxabicyclo[2.2.2]octan-4-yl)amino)nicotinamide]: the EC50 with TNFα was found to be 7 nM. The IC50 against IRAK4 enzyme was < 1 nM.

Regarding `CCOc1cc(Nc2cc(-c3ccc4cc(C#N)cnn34)ncc2C(=O)NC[C@@H](F)C(C)(C)O)cnc1-c1cnco1` [Example 635, (R)-6-(3-cyanopyrrolo[1,2-b]pyridazin-7-yl)-4-((5-ethoxy-6-(oxazol-5-yl)pyridin-3-yl)amino)-N-(2-fluoro-3-hydroxy-3-methylbutyl)nicotinamide], the EC50 with TNFα was > 10000 nM. Further, the half-maximal inhibitory concentration (IC50) against IRAK4 enzyme is 8 nM.

For `CC(C)(O)[C@H](F)CNC(=O)c1cnc(-c2ccc3cc(C#N)cnn23)cc1NC1CC(Cc2cnco2)C1` (stereo partly drawn) [Example 636, (R)-6-(3-cyanopyrrolo[1,2-b]pyridazin-7-yl)-N-(2-fluoro-3-hydroxy-3-methylbutyl)-4-((3-(oxazol-5-ylmethyl)cyclobutyl)amino)nicotinamide], the EC50 in the experiment with TNFα was found to be 33 nM. Further, the IC50 against IRAK4 enzyme was < 1 nM.

Consider `CC(C)(O)[C@H](F)CNC(=O)c1cnc(-c2ccc3cc(C#N)cnn23)cc1N[C@H]1CC[C@H](c2nnco2)CC1` [Example 637, 4-(((1r,4R)-4-(1,3,4-oxadiazol-2-yl)cyclohexyl)amino)-6-(3-cyano-pyrrolo[1,2-b]pyridazin-7-yl)-N-((R)-2-fluoro-3-hydroxy-3-methylbutyl) nicotinamide], for which the concentration for a half-maximal effect (EC50) with TNFα amounted to 21 nM. Also, the 50% inhibitory concentration (IC50) against IRAK4 enzyme is < 1 nM.

`CC(C)(O)[C@H](F)CNC(=O)c1cnc(-c2ccc3cc(C#N)cnn23)cc1N[C@@H]1CC[C@@H](c2cnco2)OC1` [Example 639, 6-(3-cyanopyrrolo[1,2-b]pyridazin-7-yl)-N-((R)-2-fluoro-3-hydroxy-3-methylbutyl)-4-(((3R,6S)-6-(oxazol-5-yl)tetrahydro-2H-pyran-3-yl)amino)nicotinamide]: the EC50 in the experiment on TNFα turned out to be 43 nM. Further, the IC50 against IRAK4 enzyme was 1 nM.

Take `CC(C)(O)[C@H](F)CNC(=O)c1cnc(-c2ccc3cc(C#N)cnn23)cc1Nc1cnc(-c2cnco2)nc1` [Example 641, (R)-6-(3-cyanopyrrolo[1,2-b]pyridazin-7-yl)-N-(2-fluoro-3-hydroxy-3-methylbutyl)-4-((2-(oxazol-5-yl)pyrimidin-5-yl)amino)nicotinamide]: the EC50 in the experiment with TNFα was 21 nM. Also, the IC50 at IRAK4 enzyme was < 1 nM.

`CC(C)(O)[C@H](F)CNC(=O)c1cnc(-c2ccc3cc(C#N)cnn23)cc1N[C@H]1CC[C@H](c2nncs2)CC1` [Example 642, 4-(((1r,4R)-4-(1,3,4-thiadiazol-2-yl)cyclo-hexyl)amino)-6-(3-cyanopyrrolo[1,2-b]pyridazin-7-yl)-N-((R)-2-fluoro-3-hydroxy-3-methylbutyl)nicotinamide]: the EC50 with TNFα stood at 13 nM. Further, the IC50 against IRAK4 enzyme is < 1 nM.

For `CC(C)Nc1cc(-c2ccc3cc(C#N)cnn23)ncc1C(=O)NC[C@@H](F)C1(O)CC1` [Example 643, (R)-6-(3-cyanopyrrolo[1,2-b]pyridazin-7-yl)-N-(2-fluoro-2-(1-hydroxycyclo-propyl)ethyl)-4-(isopropyl-amino)nicotinamide], in the experiment on TNFα, the EC50 is 8 nM. In addition, the IC50 at IRAK4 enzyme was < 1 nM.

With `Cc1ncc(C2CCC(Nc3cc(-c4ccc5cc(C#N)cnn45)ncc3C(=O)NC[C@@H](F)C(C)(C)O)CC2)o1` (stereo partly drawn) [Example 644, (R)-6-(3-cyanopyrrolo[1,2-b]pyridazin-7-yl)-N-(2-fluoro-3-hydroxy-3-methylbutyl)-4-((4-(2-methyloxazol-5-yl)cyclo-hexyl)amino)nicotinamide], the EC50 in the experiment on TNFα was 36 nM. Also, on IRAK4 enzyme, half-maximal inhibition (IC50) was put at 1 nM.

For the compound `CC(C)(O)[C@H](F)CNC(=O)c1cnc(-c2ccc3cc(C#N)cnn23)cc1Nc1ccc2c(N)n[nH]c2c1` [Example 647, (R)-4-((3-amino-1H-indazol-6-yl)amino)-6-(3-cyanopyrrolo[1,2-b]pyridazin-7-yl)-N-(2-fluoro-3-hydroxy-3-methyl-butyl)nicotinamide], the EC50 in the experiment with TNFα turned out to be 48 nM. The half-inhibitory concentration (IC50) at IRAK4 enzyme is < 1 nM.

Regarding `COCc1ccc(Nc2cc(-c3ccc4cc(C#N)cnn34)ncc2C(=O)NC[C@@H](F)C(C)(C)O)cc1` [Example 648, (R)-6-(3-cyanopyrrolo[1,2-b]pyridazin-7-yl)-N-(2-fluoro-3-hydroxy-3-methylbutyl)-4-((4-(methoxymethyl)phenyl)amino)nicotinamide], in the experiment on TNFα, the EC50 was 51 nM. The IC50 at IRAK4 enzyme stood at 1 nM.

Regarding `CC(C)(O)[C@H](F)CNC(=O)c1cnc(-c2ccc3cc(C#N)cnn23)cc1Nc1ccc(OC2COC2)nc1` [Example 649, (R)-6-(3-cyanopyrrolo[1,2-b]pyridazin-7-yl)-N-(2-fluoro-3-hydroxy-3-methylbutyl)-4-((6-(oxetan-3-yloxy)pyridin-3-yl)amino)nicotinamide], in the experiment on TNFα, the EC50 is > 10000 nM. For the same compound, half-maximal inhibition on IRAK4 enzyme (IC50) was put at 21 nM.

Turning to `CC(C)(O)[C@H](F)CNC(=O)c1cnc(-c2ccc3cc(C#N)cnn23)cc1Nc1ccc2c(c1)CC(=O)N2` [Example 650, (R)-6-(3-cyanopyrrolo[1,2-b]pyridazin-7-yl)-N-(2-fluoro-3-hydroxy-3-methylbutyl)-4-((2-oxo-indolin-5-yl)amino) nicotinamide], the EC50 in the experiment with TNFα came to 16 nM. The IC50 against IRAK4 enzyme is < 1 nM.

Regarding `CC(C)(O)[C@H](F)CNC(=O)c1cnc(-c2ccc3cc(C#N)cnn23)cc1Nc1ccc2c(c1)OC(F)(F)O2` [Example 651, (R)-6-(3-cyanopyrrolo[1,2-b]pyridazin-7-yl)-4-((2,2-difluorobenzo[d][1,3]dioxol-5-yl)amino)-N-(2-fluoro-3-hydroxy-3-methylbutyl) nicotinamide], the 50% effective concentration (EC50) in the experiment with TNFα stood at 188 nM. Further, the IC50 against IRAK4 enzyme stood at 5 nM.

With `CN1C(=O)C(C)(C)c2ccc(Nc3cc(-c4ccc5cc(C#N)cnn45)ncc3C(=O)NC[C@@H](F)C(C)(C)O)cc21` [Example 652, (R)-6-(3-cyanopyrrolo[1,2-b]pyridazin-7-yl)-N-(2-fluoro-3-hydroxy-3-methylbutyl)-4-((1,3,3-trimethyl-2-oxoindolin-6-yl)amino)nicotinamide], the EC50 in the experiment on TNFα was 188 nM. Further, 2 nM corresponded to half-maximal inhibition against IRAK4 enzyme (IC50).

On to `CC1(C)C(=O)Nc2ccc(Nc3cc(-c4ccc5cc(C#N)cnn45)ncc3C(=O)NC[C@@H](F)C(C)(C)O)cc21` [Example 653, (R)-6-(3-cyanopyrrolo[1,2-b]pyridazin-7-yl)-4-((3,3-dimethyl-2-oxoindolin-5-yl)amino)-N-(2-fluoro-3-hydroxy-3-methylbutyl) nicotinamide], for which, in the experiment with TNFα, the EC50 came to 201 nM. The compound further showed an IC50 at IRAK4 enzyme of 3 nM.

Turning to `CC(C)(O)[C@H](F)CNC(=O)c1cnc(-c2ccc3cc(C#N)cnn23)cc1N[C@H]1C[C@H](CNC(=O)OCC(F)(F)F)C1` [Example 654, 2,2,2-trifluoroethyl (((1R,3r)-3-((2-(3-cyanopyrrolo[1,2-b]pyridazin-7-yl)-5-(((R)-2-fluoro-3-hydroxy-3-methylbutyl)carbamoyl)pyridin-4-yl)amino)cyclo-butyl)methyl)carbamate], the EC50 in the experiment on TNFα was determined as 15 nM. Moreover, the IC50 on IRAK4 enzyme was < 1 nM.

For `CC(C)(O)[C@H](F)CNC(=O)c1cnc(-c2ccc3cc(C#N)cnn23)cc1N[C@H]1C[C@H](CNC(=O)CC(F)(F)F)C1` [Example 655, 6-(3-cyanopyrrolo[1,2-b]pyridazin-7-yl)-N-((R)-2-fluoro-3-hydroxy-3-methylbutyl)-4-(((1r,3R)-3-((3,3,3-trifluoropropan-amido)methyl)cyclobutyl)amino)nicotinamide], the EC50 in the experiment with TNFα worked out at 27 nM. On IRAK4 enzyme, the concentration for half-maximal inhibition (IC50) is < 1 nM.

For `CC(C)(O)[C@H](F)CNC(=O)c1cnc(-c2ccc3cc(C#N)cnn23)cc1N[C@H]1C[C@H](CNC(=O)CC(F)F)C1` [Example 656, 6-(3-cyanopyrrolo[1,2-b]pyridazin-7-yl)-4-(((1r,3R)-3-((3,3-difluoropropanamido)methyl)cyclobutyl)amino)-N-((R)-2-fluoro-3-hydroxy-3-methylbutyl) nicotinamide], the 50% effective concentration (EC50) in the experiment on TNFα stood at 40 nM. Also, the IC50 against IRAK4 enzyme was < 1 nM.

Regarding `CC(C)(O)[C@H](F)CNC(=O)c1cnc(-c2ccc3cc(C#N)cnn23)cc1Nc1ccc(N)nc1` [Example 657, (R)-4-((6-aminopyridin-3-yl)amino)-6-(3-cyano-pyrrolo[1,2-b]pyridazin-7-yl)-N-(2-fluoro-3-hydroxy-3-methylbutyl)nicotinamide], the EC50 in the experiment with TNFα came to 23 nM. Also, on IRAK4 enzyme, the concentration for half-maximal inhibition (IC50) is < 1 nM.

A word on the EC50: it is the concentration needed to bring the measured effect to its halfway point. As usually defined, the IC50 is the concentration needed to halve the response being measured. Read a high IC50 as weaker potency in that assay.
